Values after ≈ are worked out from the molar mass of the structure shown.
Tested on: A. fumigatus s 1008
Assay: In vitro MIC, NCCLS M38P broth method (RPMI 1640/MOPS pH7), Aspergillus fumigatus
Format: cell-based
Conditions: A. fumigatus s 1008

Compound | MIC (υg/ml) (A. fumigatus s 1008)
3-{4-[4-(4-chlorophenyl-N-ethylureido)-piperazinyl]-phenoxy}-2-(2,4-difluorophenyl)-1-(1H-1,2,4-triazolyl)-2-ethoxy-3-propylamine [Compound 74] | >12.5 µg/mL
3-{4-[4-(4-chlorophenyl-N-ethylureido)-piperazinyl]-phenoxy}-2-(2,4-difluorophenyl)-1-(1H-1,2,4-triazolyl)-propan-3-amino-2-ol [Compound 73] | >12.5 µg/mL
Cc1ccc(NC(=S)NN2CCN(c3ccc(OCC(O)(Cn4cncn4)c4ccc(F)cc4F)cc3)CC2)cc1 (centres unmarked) [Compound 64, 3-{4-[4-(p-Tolylthioureido)piperazinyl]phenoxy}-2-(2,4-difluorophenyl)-1-(1H-1,2,4-trizol-1-yl)-propan-2-ol] | 3.12 µg/mL (≈ 5.38 µM)
CC(C)NC(=S)NN1CCN(c2ccc(OCC(O)(Cn3cncn3)c3ccc(F)cc3F)cc2)CC1 (centres unmarked) [Compound 65, 3-{4-[4-(Isopropylaminothiocarbonylamino)piperazinyl]phenoxy}-2-(2,4-difluorophenyl)-1-(1H-1,2,4-triazol-1-yl)-propan-2-ol] | >12.5 µg/mL
OC(COc1ccc(N2CCN(NC(=S)Nc3ccc(Cl)cc3)CC2)cc1)(Cn1cncn1)c1ccc(F)cc1F (centres unmarked) [Compound 66, 3-{4-[4-(4-Chlorophenylthioureido)piperazinyl]phenoxy}-2-(2,4-difluorophenyl)-1-(1H-1,2,4-triazol-1-yl)-propan-2-ol] | >12.5 µg/mL
O=C(Nc1ccc(Cl)cc1)NN1CCN(c2ccc(OCC(O)(Cn3cncn3)c3ccc(F)cc3F)cc2)CC1 (centres unmarked) [Compound 67, 3-{4-[4-(4-Chlorophenylureido)piperazinyl]phenoxy}-2-(2,4-difluorophenyl)-1-(1H-1,2,4-triazol-1-yl)-propan-2-ol] | 6.25 µg/mL (≈ 10.7 µM)
OC(COc1ccc(N2CCN(NC(=S)Nc3cccc4ccccc34)CC2)cc1)(Cn1cncn1)c1ccc(F)cc1F (centres unmarked) [Compound 68, 3-{4-[4-(1-Napthylthioureido)piperazinyl]phenoxy}-2-(2,4-difluorophenyl)-1-(1H-1,2,4-triazol-1-yl)-propan-2-ol] | >12.5 µg/mL
O=C(Nc1cccc2ccccc12)NN1CCN(c2ccc(OCC(O)(Cn3cncn3)c3ccc(F)cc3F)cc2)CC1 (centres unmarked) [Compound 69, 3-{4-[4-(1-Napthylureido)piperazinyl]phenoxy}-2-(2,4-difluorophenyl)-1-(1H-1,2,4-triazol-1-yl)-propan-2-ol] | >12.5 µg/mL
OC(COc1ccc(N2CCN(NC(=S)Nc3ccc(C(F)(F)F)cc3)CC2)cc1)(Cn1cncn1)c1ccc(F)cc1F (centres unmarked) [Compound 70, 3-{4-[4-(4-Trifluoromethylphenylthioureido)piperazinyl]phenoxy}-2-(2,4-difluorophenyl)-1-(1H-1,2,4-triazol-1-yl)-propan-2-ol] | >12.5 µg/mL
COc1ccc(NC(=O)NN2CCN(c3ccc(OCC(O)(Cn4cncn4)c4ccc(F)cc4F)cc3)CC2)cc1 (centres unmarked) [Compound 71, 3-{4-[4-(4-Methoxyphenylureido)piperazinyl]phenoxy}-2-(2,4-difluorophenyl)-1-(1H-1,2,4-triazol-1-yl)-propan-2-ol] | >12.5 µg/mL
O=C(Nc1ccc(Cl)cc1Cl)NN1CCN(c2ccc(OCC(O)(Cn3cncn3)c3ccc(F)cc3F)cc2)CC1 (centres unmarked) [Compound 72, 3-{4-[4-(2,4-Dichlorophenylureido)piperazinyl]phenoxy}-2-(2,4-difluorophenyl)-1-(1H-1,2,4-triazol-1-yl)-propan-2-ol] | >12.5 µg/mL
COC(COc1ccc(N2CCN(NC(=O)N(C)c3ccc(Cl)cc3)CC2)cc1)(Cn1cncn1)c1ccc(F)cc1F (centres unmarked) [Compound 75, 3-{4-[4-N-(4-Chlorophenyl)-N-(methylureido)-piperazinyl]-phenoxy}-2-(2,4-difluorophenyl)-1-(1H-1,2,4-triazolyl)-2-methoxypropane] | >12.5 µg/mL
Nc1ccc(NC(=O)NN2CCN(c3ccc(OCC(O)(Cn4cncn4)c4ccc(F)cc4F)cc3)CC2)cc1 (centres unmarked) [Compound 76, 3-{4-[4-(4-Aminophenylureido)piperazinyl]phenoxy}-2-(2,4-difluorophenyl)-1-(1H-1,2,4-triazol-1-yl)-propan-2-ol] | >12.5 µg/mL
C[C@@H](Oc1ccc(N2CCN(NC(=O)Nc3ccc(Cl)cc3)CC2)cc1)[C@](O)(Cn1cncn1)c1ccc(F)cc1F [Compound 77, [1R2R/1S2S] 1-{4-[4-(4-Chlorophenylureido)-piperazinyl]-phenoxy}-2-(2,4-difluorophenyl)-1-methyl-3-(1H-1,2,4-triazolyl)-propan-2-ol] | 2 µg/mL (≈ 3.34 µM)
CC(Oc1ccc(N2CCN(NC(=O)Nc3ccc(Cl)cc3)CC2)cc1)C(O)(Cn1cncn1)c1ccc(F)cc1F (centres unmarked) [Compound 78, [1R2S/1S2R] 1-{4-[4-(4-Chlorophenylureido)-piperazinyl]-phenoxy}2-(2,4-difluorophenyl)-1-methyl-3-(1H-1,2,4-triazolyl)-propan-2-ol] | 0.5 µg/mL (≈ 0.836 µM)
CC(Oc1ccc(N2CCN(NC(=O)Nc3ccc(C(F)(F)F)cc3)CC2)cc1)C(O)(Cn1cncn1)c1ccc(F)cc1F (centres unmarked) [Compound 79, 1-{4-[4-(4-Trifluoromethylphenylureido)piperazinyl]phenoxy}-2-(2,4-difluorophenyl)-1-methyl-3-(1H-1,2,4-triazol-1-yl)-propan-2-ol] | 8 µg/mL (≈ 12.7 µM)
O=C(Nc1ccccc1)NN1CCN(c2ccc(OCC(O)(Cn3cncn3)c3ccc(F)cc3F)cc2)CC1 (centres unmarked) [Compound 80, 3-{4-[4-(Phenylureido)-piperazinyl]phenoxy}-2-(2,4-difluorophenyl)-1-(1H-1,2,4-triazol-1-yl)-propan-2-ol] | >12.5 µg/mL
CN(CC(O)(Cn1cncn1)c1ccc(F)cc1F)c1ccc(NC(=S)Nc2ccccc2)cc1 (centres unmarked) [Compound 81, 3-{N-[4-(Phenylthioureido)-phenyl]-N-methyl}-2-(2,4-Difluorophenyl)-1-(1H-1,2,4-triazolyl)-propan-3-amino-2-ol] | >12.5 µg/mL
CC(C)NC(=S)Nc1ccc(N(C)CC(O)(Cn2cncn2)c2ccc(F)cc2F)cc1 (centres unmarked) [Compound 82, 3-{N-[4-(Isopropylthioureido)-phenyl]-N-methyl}-2-(2,4-difluorophenyl)-1-(1H-1,2,4-triazolyl)-propan-3-amino-2-ol] | >12.5 µg/mL
Cc1ccc(NC(=S)Nc2ccc(N(C)CC(O)(Cn3cncn3)c3ccc(F)cc3F)cc2)cc1 (centres unmarked) [Compound 83, 3-{N-[4-(p-Tolylthioureido)-phenyl]-N-methyl}-2-(2,4-difluorophenyl)-1-(1H-1,2,4-triazolyl)-propan-3-amino-2-ol] | >12.5 µg/mL
CN(CC(O)(Cn1cncn1)c1ccc(F)cc1F)c1ccc(NC(=O)Nc2ccc(F)cc2)cc1 (centres unmarked) [Compound 84, 3-{N-[4-(p-Fluorophenylureido)-phenyl]-N-methyl}-2-(2,4-difluorophenyl)-1-(1H-1,2,4-triazolyl)-propan-3-amino-2-ol] | >12.5 µg/mL
CN(CC(O)(Cn1cncn1)c1ccc(F)cc1F)c1ccc(NC(=O)Nc2ccc([N+](=O)[O-])cc2)cc1 (centres unmarked) [Compound 85, 3-{N-[4-(p-nitrophenylureido)-phenyl]-N-methyl}-2-(2,4-Difluorophenyl)-1-(1H-1,2,4-triazolyl)-propan-3-amino-2-ol] | >12.5 µg/mL
CN(CC(O)(Cn1cncn1)c1ccc(F)cc1F)c1ccc(NC(=O)Nc2ccc(Cl)cc2)cc1 (centres unmarked) [Compound 86, 3-{N-[4-(p-Chlorophenylureido)-phenyl]-N-methyl}-2-(2,4-difluorophenyl)-1-(1H-1,2,4-triazolyl)-propan-3-amino-2-ol] | >12.5 µg/mL
CN(CC(O)(Cn1cncn1)c1ccc(F)cc1F)c1ccc(NC(=O)Nc2ccc(CC(=O)O)cc2)cc1 (centres unmarked) [Compound 87] | >12.5 µg/mL
COC(=O)Cc1ccc(NC(=O)Nc2ccc(N(C)CC(O)(Cn3cncn3)c3ccc(F)cc3F)cc2)cc1 (centres unmarked) [Compound 88, 3-{N-[4-((2-Methoxy-2-oxoethyl)-phenylureido)-phenyl]-N-methyl}-2-(2,4-difluorophenyl)-1-(1H-1,2,4-triazolyl)-propan-3-amino-2-ol] | >12.5 µg/mL
CN(CC(O)(Cn1cncn1)c1ccc(F)cc1F)c1ccc(NC(=O)Nc2ccc(NC(=S)Nc3ccc(Cl)cc3)cc2)cc1 (centres unmarked) [Compound 89, 3-{N-[4-((p-Chlorophenylthioureido)-phenylureido)-phenyl]-N-methyl}-2-(2,4-difluorophenyl)-1-(1H-1,2,4-triazolyl)-propan-3-amino-2-ol] | >12.5 µg/mL
CC(C)NC(=S)NN1CCN(c2ccc(-n3cnn(CC(O)(Cn4cncn4)c4ccc(F)cc4F)c3=O)cc2)CC1 (centres unmarked) [Compound 90, 2-[2-(2,4-Difluorophenyl)-2-hydroxy-3-(1H-1,2,4-triazol-1-yl)propyl]-4-{4-[4-(isopropylthiouredio)-1-piperazinyl]phenyl}-3-(2H,4H)-1,2,4-triazolone] | >12.5 µg/mL
O=C(Nc1ccc(Cl)cc1)NN1CCN(c2ccc(-n3cnn(CC(O)(Cn4cncn4)c4ccc(F)cc4F)c3=O)cc2)CC1 (centres unmarked) [Compound 91, 2-[2-(2,4-Difluorophenyl)-2-hydroxy-3-(1H-1,2,4-triazol-1-yl)propyl]-4-{4-[4-(4-chlorophenyluredio)-1-piperazinyl]phenyl}-3-(2H,4H)-1,2,4-triazolone] | >12.5 µg/mL
O=c1n(-c2ccc(N3CCN(NC(=S)Nc4ccc(Cl)cc4)CC3)cc2)cnn1CC(O)(Cn1cncn1)c1ccc(F)cc1F (centres unmarked) [Compound 92, 2-[2-(2,4-Difluorophenyl)-2-hydroxy-3-(1H-1,2,4-triazol-1-yl)propyl]-4-{4-[4-(4-chlorophenylthiouredio)-1-piperazinyl]phenyl}-3-(2H,4H)-1,2,4-triazolone] | >12.5 µg/mL

— patent publication US6670363B1, “Azole compounds as therapeutic agents for fungal infections” (Ranbaxy Laboratories Limited, priority 2000, dated 2003)
